Marks after values point to notes of the source that are not given here. *1 amine or outer side, *2 acyl side, *3 side chain or, on linkers, in order; H or OH if unused. Where no end group is shown, it is not given here. [ ]: non-standard residue; d: D form. The star is where a group is joined. aminoluciferin = O=C(O)[C@H]1CSC(c2nc3ccc(N*)cc3s2)=N1; AFC = O=c1cc(C(F)(F)F)c2ccc(N*)cc2o1; AMC = Cc1cc(=O)oc2cc(N*)ccc12; Suc = O=C(CCC(=O)[*:2])[*:1]; code Z = not defined here; Cbz = O=C(OCc1ccccc1)*
Assays:
[1] = test system: lysed HL-60 or Jurkat cells; experiment: Protease release: substrate cleavage in lysed (compromised) cells; format: cell-based; set-up: key: None denotes no statistical activity above control population.; (+) to (+++++) denotes the range of activity above control population from modest to robust; (+) to (+++++) denotes the range of activity above control population from modest to robust; (+) to (+++++) denotes the range of activity above control population from modest to robust; (+) to (+++++) denotes the range of activity above control population from modest to robust; (+) to (+++++) denotes the range of activity above control population from modest to robust; conditions: proteolytic activity on substrate in lysed (freeze fractured, sonicated or detergent) HL-60 or Jurkat cells, above control population; 15-30 min 37° C.
Protocol: (§1) All substrates were solubilized in DMSO from 10 to 100 mM depending upon inherent solubility. Fluorescent substrates were diluted to 100 μM to 1 mM in 10 mM Hepes, pH 7.5 or matched cell culture medium with 10% serum and added in 1/10th volumes to lysed (freeze fractured, sonicated, or detergent) or untreated viable cells in white-walled, clear bottomed 96-well plates. HL-60 or Jurkat were used in the experimentation interchangeably because of their easily manipulated suspension phenotype. Plates were incubated for 15-30 minutes at 37° C. prior to measuring fluorescence by the CytoFluor II.
(§2) Luminescent substrates were added to a luciferin detection cake (Promega V859A) resuspended in 2 ml 10 mM Hepes, pH 7.5 to 500 μM. ⅕^th volume of the proluminescent reaction mixes were added to lysed (freeze fractured, sonicated, or detergent) or untreated viable cells in white-walled, clear bottomed 96-well plates. Again, HL-60 or Jurkat were used in the experimentation interchangeably. Plates were incubated at 37° C. in a MeCour' circulating heat block controlled by a Caron 2050 W exchange unit. Luminescence was measured between 15 and 30 minutes (signal steady state).
(§3) A broad variety of proteolytic substrates were examined in an effort to characterize potential substrate preferences for protease release or retention in compromised or viable cells (see Table 3). […] Non-blocked substrates (H- and the like) were examined to include the contribution of aminopeptidase activities. From this panel, at least three proteolytic profiles emerged: an aminopeptidase-like activity preferring unblocked Ala-Ala-Phe tripeptide, a proteosomal (chymotrypsin-like) activity measured by release of blocked Leu-Leu-Val-Tyr (SEQ ID NO:1) peptides, and an exceedingly labile activity by Gly-Phe, Gly-Ala, Phe-, Tyr- or Gly-Gly-Leu substrates. The latter activities were only measurable in viable, intact cells. Of further significance is that several fluorophores or proluminescent labels can be used to detect these activities, ultimately allowing for enhanced downstream multiplexing flexibility.

[2] = test system: untreated viable HL-60 or Jurkat cells; experiment: Protease retention: substrate cleavage in untreated viable cells; format: cell-based; set-up: key: None denotes no statistical activity above control population.; (+) to (+++++) denotes the range of activity above control population from modest to robust; (+) to (+++++) denotes the range of activity above control population from modest to robust; (+) to (+++++) denotes the range of activity above control population from modest to robust; (+) to (+++++) denotes the range of activity above control population from modest to robust; (+) to (+++++) denotes the range of activity above control population from modest to robust; conditions: proteolytic activity on substrate in untreated viable HL-60 or Jurkat cells, above control population; 15-30 min 37° C.
Protocol: as §1, §2, §3

[3] = test system: proteasome or luciferase activity in HL-60 cells; experiment: Screen of cell membrane permeabilization reagents in cell-based luminescent proteasome reaction; conditions: 25,000 HL-60 cells, detergent 0.05 and 0.1% final, 22° C., LLVY-aminoluciferin
Protocol: FIGS. 10A-C. Screen for cell membrane permeabilization reagents suitable to detect proteasomes in a cell-based luminescent reaction.
Other permeabilizing agents were screened for those suitable to detect proteasome activity in a cell-based assay (FIGS. 10A-C). Reagents containing low concentrations of various detergents (0.05 and 0.1% final) were prepared. 100 μl/well samples containing 25,000 HL-60 cells in complete medium were added to a 96-well plate and equilibrated at 37° C. The plate and reagents were cooled to 22° C. and an equal volume of reagent was added to each sample. The plate was shaken for 1 minute, then incubated at 22° C. Luminescence was then determined over time.

[4] = test system: SK-MEL-28 cells; experiment: Multiplexed protease retention (Gly-Phe-AFC) and Caspase-Glo 3/7 assay; format: cell-based; conditions: serial dilutions, 5 hours
Protocol: (§4) SK-MEL-28 or ACHN cells were seeded into white-walled, clear bottomed 96 well plates at a density of 10,000 cells per well in 100 μl volumes and allowed to attach at 37° C. in 5% CO2 for a period of 2 hours. After attachment, 50 μl of medium was carefully removed and replaced with serial dilutions of either ionomycin or staurosporine in MEM+10% FBS. Medium only served as control. The plate was incubated for an additional 5 hours. A 1 mM solution of Gly-Phe-AFC was made in MEM and added to the wells in a 1/10th volume. Resulting fluorescence was measured using a CytoFluor II. Caspase-Glo™ 3/7 reagent was then added and luminescence measure using a BMG FLUOstar Optima.

[5] = test system: proteasome activity in HL-60 cells; experiment: Cell-based luminescent proteasome assay in HL-60 cells; conditions: 1.5 hour treatment (FIG. 2B)
[6] = test system: ACHN cells; experiment: Multiplexed protease retention (Gly-Phe-AFC) and Caspase-Glo 3/7 assay; format: cell-based; conditions: serial dilutions, 5 hours
Protocol: as §4

Glutyl-Ala-Ala-Phe-AMC [Gluty-Ala-Ala-Phe-AMC]
Release [1]: None
Retention [2]: None

H-Gly-Gly-{AMC}
Release [1]: None
Retention [2]: None

Z-Arg-Leu-Arg-Gly-Gly-AMC (RLRGG; Z N-terminal, AMC C-terminal)
Release [1]: None
Retention [2]: None

CCCCCCCCCCCCOS(=O)(=O)[O-].[Na+] [SDS]
effect on proteasome or luciferase activity [3]: negative effects

Suc-Ala-Ala-Phe-{AMC}
Release [1]: None
Retention [2]: None

Ala-Ala-Phe-{AMC}
Release [1]: ++++
Retention [2]: None

Ser-Tyr-{AFC}
Release [1]: None
Retention [2]: None

Cc1cc(=O)oc2cc(NC(=O)[C@@H](N)Cc3ccc(O)cc3)ccc12 [H-Tyr-AMC]
Release [1]: None
Retention [2]: ++

C[C@H](CCC(=O)O)C[C@H](C)C[C@H](C)C(=O)/C=C(\O)[C@H](C)C[C@H](C)C/C=C/[C@@H](C)[C@@H](O)[C@@H](C)[C@@H](O)C[C@@H]1CC[C@@](C)([C@H]2CC[C@@](C)([C@@H](C)O)O2)O1 [ionomycin]
cytotoxicity profile (protease retention viability and caspase 3/7 activity) [4]: necrotic-type profile

Cbz-Phe-Arg-{AMC}
Release [1]: None
Retention [2]: None^1

Gly-Phe-{AFC}
Release [1]: None
Retention [2]: ++++

Suc-Leu-Leu-Val-Tyr-AMC (Suc-LLVY-{AMC}; SMILES Cc1cc(=O)oc2cc(NC(=O)[C@H](Cc3ccc(O)cc3)NC(=O)[C@@H](NC(=O)[C@H](CC(C)C)NC(=O)[C@H](CC(C)C)NC(=O)CCC(=O)O)C(C)C)ccc12)
Release [1]: +
Retention [2]: None

Z-Leu-Arg-aminoluciferin [Z-Leu-Arg-Aluc]
Release [1]: None
Retention [2]: None

Tween®-20
effect on proteasome or luciferase activity [3]: negative effects

C[C@H](CCC(=O)NCCC[N+](C)(C)CCCS(=O)(=O)[O-])[C@H]1CC[C@H]2[C@@H]3[C@H](O)C[C@@H]4C[C@H](O)CC[C@]4(C)[C@H]3C[C@H](O)[C@]12C [CHAPS]
effect on proteasome or luciferase activity [3]: negative effects

(Gly-Phe)2-R110 [(Gly-Phe)2 R110]
Release [1]: None
Retention [2]: None

Z-Phe-Arg-aminoluciferin [Z-Phe-Arg-Aluc]
Release [1]: None
Retention [2]: None

Triton X-100
effect on proteasome or luciferase activity [3]: did not substantially effect

Suc-Arg-Pro-Phe-His-Leu-Leu-Val-Tyr-AMC (Suc-RPFHLLVY-{AMC}; SMILES Cc1cc(=O)oc2cc(NC(=O)[C@H](Cc3ccc(O)cc3)NC(=O)[C@@H](NC(=O)[C@H](CC(C)C)NC(=O)[C@H](CC(C)C)NC(=O)[C@H](Cc3c[nH]cn3)NC(=O)[C@H](Cc3ccccc3)NC(=O)[C@@H]3CCCN3C(=O)[C@H](CCCNC(=N)N)NC(=O)CCC(=O)O)C(C)C)ccc12) [S-R-P-F-H-L-L-V-Y-AMC]
Release [1]: None
Retention [2]: None

H-Gly-Phe-{AMC}
Release [1]: None
Retention [2]: ++

(Ala-Ala-Phe)2-R110 [(Ala-Ala-Phe) 2 R110]
Release [1]: ++++
Retention [2]: None

Ac-Ala-Ala-Tyr-{AMC}
Release [1]: None
Retention [2]: None

CCCC[C@@H](C=O)NC(=O)[C@H](CC(C)C)NC(=O)OCc1ccccc1 [Calpeptin, calpeptin]
effect on proteasome activity [5]: minimal effect

Tergitol® NP-9
effect on proteasome or luciferase activity [3]: did not substantially effect

H-Gly-Ala-{AMC}
Release [1]: None
Retention [2]: ++

Cbz-Gly-Ala-Met-{AMC}
Release [1]: None
Retention [2]: None

Cbz-Gly-Gly-Leu-{AMC}
Release [1]: None
Retention [2]: ++*

Z-Leu-Arg-Gly-Gly-AMC (LRGG; Z N-terminal, AMC C-terminal)
Release [1]: None
Retention [2]: None

H-[dA]-Leu-Lys-{AMC}
Release [1]: None
Retention [2]: None

Cc1cc(=O)oc2cc(NC(=O)[C@@H](N)Cc3ccccc3)ccc12 [H-Phe-AMC]
Release [1]: None
Retention [2]: +++

H-Pro-Phe-Arg-{AMC}
Release [1]: None
Retention [2]: None

Z-Leu-Leu-Val-Tyr-aminoluciferin ({code Z}-LLVY-aminoluciferin; reading uncertain; also: printed as Z-Leu-Leu-Val-Tyr-aminoluciferin) [Z-Leu-Leu-Val-Tyr-Aluc]
Release [1]: ++
Retention [2]: None

Ala-Ala-Phe-aminoluciferin
Release [1]: ++++
Retention [2]: None

CN[C@@H]1C[C@H]2O[C@@](C)([C@@H]1OC)n1c3ccccc3c3c4c(c5c6ccccc6n2c5c31)C(=O)NC4 [staurosporine]
cytotoxicity profile (protease retention viability and caspase 3/7 activity) [4]: caspase activation (and therefore apoptosis induction) is evident
cytotoxicity profile (protease retention viability and caspase 3/7 activity) [6]: apoptotic profile
